The NIST ThermoML archive (doi:10.1021/je0602519)

Test: xn = mol fraction of the nth substance listed
Conditions: 101 kPa, Liquid; for speed of sound: Frequency=2 MHz, Linear variable-path acoustic interferometer; for mass density: Pycnometric method

CCCCCCCCCCO [decan-1-ol] + Cc1ccccc1
Conditions	mass density, 303.15 K [kg/m3]	mass density, 313.15 K [kg/m3]	speed of sound, 303.15 K [m/s]	speed of sound, 313.15 K [m/s]	viscosity, 303.15 K [mPa·s]	viscosity, 313.15 K [mPa·s]
x2 = 0	822.87	815.97	1366	1334	9.716	6.82
x2 = 0.0507	823.76	816.74	1361	1327	8.474	6.06
x2 = 0.1015	824.73	817.58	1355	1320	7.424	5.343
x2 = 0.1473	825.62	818.34	1349	1314	6.635	4.771
x2 = 0.2091	826.88	819.45	1340	1305	5.658	4.059
x2 = 0.2577	827.9	820.38	1333	1297	4.962	3.552
x2 = 0.3006	828.84	821.2	1327	1292	4.458	3.112
x2 = 0.3496	829.95	822.24	1318	1283	3.848	2.71
x2 = 0.4028	831.22	823.38	1311	1275	3.32	2.263
x2 = 0.4516	832.48	824.49	1303	1268	2.843	1.903
x2 = 0.4989	833.77	825.69	1295	1261	2.499	1.678
x2 = 0.5497	835.29	827.06	1290	1255	2.152	1.47
x2 = 0.6009	836.92	828.57	1285	1249	1.883	1.305
x2 = 0.6498	838.61	830.11	1280	1245	1.594	1.162
x2 = 0.7065	840.8	832.12	1275	1240	1.414	0.994
x2 = 0.7524	842.7	833.86	1274	1239	1.15	0.905
x2 = 0.8069	845.15	836.21	1273	1239	1.021	0.79
x2 = 0.8472	847.18	838.04	1274	1240	0.887	0.732
x2 = 0.9063	850.54	841.18	1278	1243	0.75	0.64
x2 = 0.9489	853.12	843.58	1282	1248	0.599	0.565

CCCCCCCCO [octan-1-ol] + Cc1ccccc1
Conditions	mass density, 303.15 K [kg/m3]	mass density, 313.15 K [kg/m3]	speed of sound, 303.15 K [m/s]	speed of sound, 313.15 K [m/s]	viscosity, 303.15 K [mPa·s]	viscosity, 313.15 K [mPa·s]
x2 = 0	818.38	811.05	1334	1304	6.433	4.603
x2 = 0.0495	819.62	812.14	1329	1300	5.63	4.13
x2 = 0.1104	821.19	813.56	1325	1293	4.775	3.645
x2 = 0.1513	822.25	814.55	1321	1287	4.281	3.261
x2 = 0.1999	823.55	815.73	1316	1282	3.788	2.832
x2 = 0.2517	824.98	817.04	1310	1274	3.28	2.545
x2 = 0.2997	826.34	818.29	1304	1268	2.952	2.218
x2 = 0.356	828.02	819.85	1297	1262	2.504	1.944
x2 = 0.3998	829.32	821.03	1291	1255	2.229	1.715
x2 = 0.4506	830.99	822.56	1286	1250	1.974	1.518
x2 = 0.5001	832.63	824.08	1281	1242	1.758	1.37
x2 = 0.5513	834.46	825.77	1276	1238	1.541	1.175
x2 = 0.6014	836.31	827.51	1272	1234	1.35	1.084
x2 = 0.6495	838.22	829.3	1270	1231	1.214	0.935
x2 = 0.6997	840.36	831.29	1268	1228	1.065	0.866
x2 = 0.7569	842.9	833.69	1267	1228	0.931	0.754
x2 = 0.8012	845.02	835.74	1268	1229	0.819	0.703
x2 = 0.8527	847.7	838.28	1269	1232	0.733	0.636
x2 = 0.9	850.32	840.85	1273	1236	0.646	0.558
x2 = 0.954	853.6	844	1280	1245	0.576	0.526
